Data: PubChem BioAssay (NCI)
Where “and” joins values, the source holds several entries; their conditions need not be identical. Equal entries are not always repeated.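 1) Cells in 96-well plates. 2) Compound, 48 h, 5 concentrations. 3) Linear interpolation between surrounding doses. 4) Unreached endpoint = highest concentration. Abbreviation: GI50, concentration required for 50% inhibition of growth. TGI denotes the concentration required for complete inhibition of growth.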

Tests used:
Experiment in all cases: NCI anticancer screen, dose series, 48 h
HS 578T breast = tested on: HS 578T breast
M14 melanoma = tested on: M14 melanoma
SR leukemia = tested on: SR leukemia
MCF7 breast = tested on: MCF7 breast
TK-10 renal = tested on: TK-10 renal
HOP-62 NSCLC = tested on: HOP-62 NSCLC
T-47D breast = tested on: T-47D breast
LOX IMVI melanoma = tested on: LOX IMVI melanoma
UACC-62 melanoma = tested on: UACC-62 melanoma
HL-60(TB) leukemia = tested on: HL-60(TB) leukemia

SMILES	TGI (HS 578T breast)	TGI (M14 melanoma)	TGI (SR leukemia)	TGI (MCF7 breast)	TGI (TK-10 renal)	TGI (HOP-62 NSCLC)	TGI (T-47D breast)	TGI (LOX IMVI melanoma)	TGI (UACC-62 melanoma)	TGI (HL-60(TB) leukemia)	GI50 (HS 578T breast)	GI50 (M14 melanoma)	GI50 (SR leukemia)	GI50 (MCF7 breast)	GI50 (TK-10 renal)	GI50 (HOP-62 NSCLC)	GI50 (T-47D breast)	GI50 (LOX IMVI melanoma)	GI50 (UACC-62 melanoma)	GI50 (HL-60(TB) leukemia)
CC(C(=O)O)c1ccc(-c2ccccc2)c(F)c1 (stereo not drawn)	> 100 µM	> 100 µM	> 100 µM	> 100 µM	> 100 µM	> 100 µM	> 100 µM	> 100 µM	> 100 µM	> 100 µM	–	–	–	–	–	–	–	–	–	–
Clc1ccc2ns[s+]c2c1	> 100 µM	> 100 µM	> 31.6 µM	> 100 µM	> 61.1 µM	> 29.9 µM	92 µM	> 84 µM	> 100 µM	> 77.9 µM	–	–	–	–	–	–	–	–	–	–
CCCCCCNC(=O)n1cc(F)c(=O)[nH]c1=O	> 100 µM	23.9 µM	21.3 µM	16.8 µM	22.7 µM	21.5 µM	47.5 µM	16.3 µM	25 µM	30.6 µM	52 µM	7.77 µM	1.44 µM	0.65 µM	4.71 µM	7.09 µM	11.7 µM	2.06 µM	2.8 µM	6.84 µM
Oc1c(Cl)cc(Cl)cc1Sc1cc(Cl)cc(Cl)c1O	9.48 µM and 8.31 µM	15.3 µM and 14.5 µM	13.6 µM and > 100 µM	10.5 µM and 10.2 µM	11.6 µM	14.9 µM and 5.66 µM	18 µM and 7.78 µM	11.2 µM and 10.8 µM	14.1 µM and 5.44 µM	6.5 µM and 7.5 µM	2.47 µM and 2.32 µM	3.88 µM and 4.02 µM	3.09 µM and 4.96 µM	3.06 µM and 2.88 µM	3.99 µM	3.37 µM and 2.17 µM	3.23 µM and 2.45 µM	2.93 µM and 3 µM	3.57 µM and 2.02 µM	2.88 µM and 2.72 µM
Cc1nn(CNc2ccccc2C(F)(F)F)c(=S)n1/N=C/c1ccc(F)cc1	> 100 µM	> 100 µM	51.6 µM	> 100 µM	> 100 µM	> 100 µM	> 100 µM	> 100 µM	> 100 µM	> 100 µM	72.3 µM	87.9 µM	12.3 µM	60.3 µM	53.8 µM	> 100 µM	> 100 µM	> 100 µM	35.4 µM	91.9 µM
COC(=O)[C@H]1[C@H]2C[C@@H]3c4[nH]c5cc(OC)ccc5c4CCN3C[C@H]2C[C@@H](OC(=O)/C=C/c2cc(OC)c(OC)c(OC)c2)[C@@H]1OC	39.5 µM	20 µM	6.63 µM	23 µM	11.3 µM	25.5 µM	9.54 µM	13.1 µM	33.4 µM	–	5.77 µM	6.24 µM	2.48 µM	4.75 µM	3.35 µM	5.99 µM	3.15 µM	3.31 µM	14.5 µM	–
CC(C)(C)n1cc(-c2ccnc(NCCCNS(=O)(=O)c3ccc(Br)cc3)c2)c(-c2cccc(O)c2)n1	5.53 µM	3.29 µM	–	3.98 µM	6.62 µM	4.2 µM	8.12 µM	3.2 µM	3.06 µM	7.49 µM	2.24 µM	1.78 µM	–	1.88 µM	2.51 µM	2.05 µM	2.48 µM	1.77 µM	1.59 µM	2.72 µM
CCCCN(CC)c1ncnc2ccc(Br)cc12	35.9 µM	34.7 µM	34.2 µM	75.2 µM	39.8 µM	34 µM	> 100 µM	38.7 µM	34.7 µM	–	13.1 µM	18.2 µM	8.42 µM	24.6 µM	19.7 µM	16.9 µM	28.9 µM	17.9 µM	15.7 µM	–
CC1(C)C(=O)C=CC2(C)C1CC(O)C1(C)C2CCC2(C)C(c3ccoc3)OC(=O)C3OC321 (stereo not drawn)	–	> 100 µM	–	> 100 µM	37.5 µM	85.7 µM	–	38.9 µM	26.9 µM	–	–	–	–	–	–	–	–	–	–	–
Cc1ccc(/C=C2/NC(=S)SC2=O)cc1	–	> 100 µM	–	> 100 µM	53.9 µM	> 100 µM	> 100 µM	> 100 µM	–	> 100 µM	–	–	–	–	–	–	–	–	–	–
CNCCNc1nc2ccccc2c2c(=O)c3cc(OC)ccc3sc12	4.33 µM	3.23 µM	4.23 µM	3.1 µM	–	3.22 µM	3.66 µM	2.88 µM	3.13 µM	3.6 µM	1.84 µM	1.73 µM	1.74 µM	1.54 µM	–	1.49 µM	1.71 µM	1.51 µM	1.69 µM	1.9 µM
COC(=O)[C@]1(C)CCC[C@@]2(C)[C@@H]3C[C@@H]4[C@H]5C[C@@]3(CC[C@@H]21)C[C@@]45C	47.9 µM	38.8 µM	–	30.3 µM	28.3 µM	32.2 µM	62.2 µM	34.9 µM	28 µM	17.8 µM	–	–	–	–	–	–	–	–	–	–
COC(=O)c1ccc(CN2C(=O)C(Cl)=C(Nc3ccc(OC)c(Cl)c3)C2=O)cc1	> 50 µM	> 50 µM	36.9 µM	> 50 µM	> 50 µM	> 50 µM	–	26.7 µM	21.1 µM	> 50 µM	43 µM	32.6 µM	4.08 µM	12.6 µM	> 50 µM	22.7 µM	–	5.66 µM	7.32 µM	32 µM
CC[C@]1(O)C[C@@H]2CN(CCc3c([nH]c4ccccc34)[C@@](C(=O)OC)(c3cc4c(cc3OC)N(C)[C@H]3[C@@](O)(C(N)=O)[C@H](O)[C@]5(CC)[C@@H]6C[C@@H]6CN6CC[C@]43[C@@H]65)C2)C1	> 21.3 µM	0.956 µM	10.2 µM	> 18.2 µM	> 33.3 µM	> 33.3 µM	–	> 33.3 µM	> 33.3 µM	0.013 µM	< 0.00333 µM	0.00605 µM	< 0.00333 µM	< 0.00333 µM	13 µM	0.00694 µM	–	< 0.00333 µM	< 0.00333 µM	< 0.00333 µM
C[C@]12CC[C@@H](OC(=O)N(CCCl)N=O)C[C@@H]1CC[C@@H]1[C@@H]2CC[C@]2(C)C(=O)CC[C@@H]12	17.9 µM	44.9 µM	6.82 µM	19.2 µM	33.1 µM	27 µM	55.9 µM	22.1 µM	25.6 µM	–	3.04 µM	14.7 µM	0.0156 µM	1.38 µM	12 µM	5.48 µM	2.82 µM	5.6 µM	1.46 µM	–
